# Columns and labels:
# [1] = target: T1, Amine oxidase [flavin-containing] A (Homo sapiens, UniProt P21397); assay: Activity at recombinant human MAO-A expressed in baculovirus infected BT1 cells assessed as hydrogen peroxide generation rate preincubated for 30 mins by Amplex Red assay; details: 0.5 h
# T1 sequence (P21397 whole entry): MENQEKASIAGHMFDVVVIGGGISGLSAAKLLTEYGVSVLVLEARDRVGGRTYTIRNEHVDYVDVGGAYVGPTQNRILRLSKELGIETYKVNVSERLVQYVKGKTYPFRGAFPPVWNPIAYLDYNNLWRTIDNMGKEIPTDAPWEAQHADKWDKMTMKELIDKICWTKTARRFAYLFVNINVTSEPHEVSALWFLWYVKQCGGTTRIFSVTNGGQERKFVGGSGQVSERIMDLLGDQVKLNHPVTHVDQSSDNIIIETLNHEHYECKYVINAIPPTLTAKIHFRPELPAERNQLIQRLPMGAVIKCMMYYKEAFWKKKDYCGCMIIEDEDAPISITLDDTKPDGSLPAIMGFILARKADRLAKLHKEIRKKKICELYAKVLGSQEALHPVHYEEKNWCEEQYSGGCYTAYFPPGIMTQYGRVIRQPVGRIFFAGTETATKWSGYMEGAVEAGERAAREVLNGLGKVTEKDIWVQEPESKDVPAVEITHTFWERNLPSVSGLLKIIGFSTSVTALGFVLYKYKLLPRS
# [2] = target: T2, Amine oxidase [flavin-containing] B (Homo sapiens, UniProt P27338); assay: Ratio of relative Vmax to Km for recombinant human MAO-B expressed in baculovirus infected BT1 cells assessed as hydrogen peroxide generation rate preincubated for 30 mins by Amplex Red assay; details: 0.5 h
# T2 sequence (P27338 whole entry): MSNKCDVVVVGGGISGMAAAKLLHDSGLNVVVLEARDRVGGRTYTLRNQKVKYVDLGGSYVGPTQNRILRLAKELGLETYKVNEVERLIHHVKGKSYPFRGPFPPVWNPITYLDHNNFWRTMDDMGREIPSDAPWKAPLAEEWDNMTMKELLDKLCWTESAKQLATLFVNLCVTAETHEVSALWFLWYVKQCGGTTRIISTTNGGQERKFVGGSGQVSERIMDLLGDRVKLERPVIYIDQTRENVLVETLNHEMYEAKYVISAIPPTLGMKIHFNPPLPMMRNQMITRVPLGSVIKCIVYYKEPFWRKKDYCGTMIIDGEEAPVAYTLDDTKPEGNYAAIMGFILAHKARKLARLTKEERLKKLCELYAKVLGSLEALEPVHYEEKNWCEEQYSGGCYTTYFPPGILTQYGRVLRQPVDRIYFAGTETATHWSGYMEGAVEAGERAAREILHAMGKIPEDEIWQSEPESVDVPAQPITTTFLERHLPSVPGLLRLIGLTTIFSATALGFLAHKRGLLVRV
# [3] = target: T1, Amine oxidase [flavin-containing] A; assay: Ratio of relative Vmax to Km for recombinant human MAO-A expressed in baculovirus infected BT1 cells assessed as hydrogen peroxide generation rate preincubated for 30 mins by Amplex Red assay; details: 0.5 h
# [4] = target: T2, Amine oxidase [flavin-containing] B; assay: Activity at recombinant human MAO-B expressed in baculovirus infected BT1 cells assessed as hydrogen peroxide generation rate preincubated for 30 mins by Amplex Red assay relative to control
# [5] = target: T1, Amine oxidase [flavin-containing] A; assay: Activity at recombinant human MAO-A expressed in baculovirus infected BT1 cells assessed as hydrogen peroxide generation rate preincubated for 30 mins by Amplex Red assay relative to control
# [6] = target: T1, Amine oxidase [flavin-containing] A; assay: Ratio of relative Vmax to Km for recombinant human MAO-A expressed in baculovirus infected BT1 cells assessed as hydrogen peroxide generation rate using p-tyramine as substrate at 200 uM preincubated for 30 mins by Amplex Red assay
# [7] = target: T1, Amine oxidase [flavin-containing] A; assay: Activity at recombinant human MAO-A expressed in baculovirus infected BT1 cells assessed as hydrogen peroxide generation rate per min/mg using p-tyramine as substrate at 200 uM preincubated for 30 mins by Amplex Red assay relative to control
# [8] = target: T1, Amine oxidase [flavin-containing] A; assay: Reversible inhibition of recombinant human MAO-A expressed in baculovirus infected BT1 cells using p-tyramine as substrate by Lineweaver-Burk plot analysis
# [9] = target: T2, Amine oxidase [flavin-containing] B; assay: Mixed type inhibition of recombinant human MAO-B expressed in baculovirus infected BT1 cells using benzylamine as substrate at 200 uM preincubated for 30 mins by Lineweaver-Burk plot analysis
# [10] = target: T2, Amine oxidase [flavin-containing] B; assay: Reversible inhibition of recombinant human MAO-B expressed in baculovirus infected BT1 cells using benzylamine as substrate at 200 uM preincubated for 30 mins by Lineweaver-Burk plot analysis
# [11] = target: T2, Amine oxidase [flavin-containing] B; assay: Activity at recombinant human MAO-B expressed in baculovirus infected BT1 cells assessed as hydrogen peroxide generation rate per min/mg using benzylamine as substrate at 200 uM preincubated for 30 mins by Amplex Red assay relative to control
# [12] = target: T2, Amine oxidase [flavin-containing] B; assay: Ratio of relative Vmax to Km for recombinant human MAO-B expressed in baculovirus infected BT1 cells assessed as hydrogen peroxide generation rate using benzylamine as substrate at 200 uM preincubated for 30 mins by Amplex Red assay
# [13] = target: T1, Amine oxidase [flavin-containing] A; assay: Mixed type inhibition of recombinant human MAO-A expressed in baculovirus infected BT1 cells using p-tyramine as substrate by Lineweaver-Burk plot analysis
# [14] = target: T2, Amine oxidase [flavin-containing] B; assay: Activity at recombinant human MAO-B expressed in baculovirus infected BT1 cells assessed as hydrogen peroxide generation rate preincubated for 30 mins by Amplex Red assay
# [15] = target: T1, Amine oxidase [flavin-containing] A; assay: Ratio of residual Vmax to Km for recombinant human MAO-A expressed in baculovirus infected BT1 cells assessed as residual activity using benzylamine as substrate at 20 uM preincubated for 30 mins by Amplex Red assay
# [16] = target: T2, Amine oxidase [flavin-containing] B; assay: Ratio of residual Vmax to Km for recombinant human MAO-B expressed in baculovirus infected BT1 cells assessed as residual activity using benzylamine as substrate at 20 uM preincubated for 30 mins by Amplex Red assay
# [17] = Cytotoxicity against human SH-SY5Y cells after 24 hrs by Annexin V-PE-based flow cytometry; type: cell-based; details: for IC50: Homo sapiens, SH-SY5Y; for Activity: human, sh-sy5y
# [18] = target: T1, Amine oxidase [flavin-containing] A; assay: Competitive inhibition of MAOA in human SH-SY5Y cells using p-tyramine as substrate preincubated for 5 mins by Lineweaver-Burk plot analysis; type: cell-based
# [19] = target: T1, Amine oxidase [flavin-containing] A; assay: Inhibition of recombinant human MAO-A expressed in baculovirus infected BT1 cells assessed as residual activity using p-tyramine as substrate at 100 uM after 10 mins; details: read-out: Activity
# [20] = target: T1, Amine oxidase [flavin-containing] A; assay: Inhibition of recombinant human MAO-A expressed in baculovirus infected BT1 cells using p-tyramine as substrate after 20 to 80 mins by Lineweaver-Burk plot analysis
# [21] = target: T1, Amine oxidase [flavin-containing] A; assay: Inhibition of recombinant human MAO-A expressed in baculovirus infected BT1 cells assessed as residual activity using p-tyramine as substrate at 50 uM at 37 degC
# [22] = target: T1, Amine oxidase [flavin-containing] A; assay: Irreversible inhibition of recombinant human MAO-A expressed in baculovirus infected BT1 cells using p-tyramine as substrate by Lineweaver-Burk plot analysis
# [23] = target: T1, Amine oxidase [flavin-containing] A; assay: Inhibition of recombinant human MAO-A expressed in baculovirus infected BT1 cells assessed as residual activity using p-tyramine as substrate at 50 uM at 25 degC
# [24] = target: T2, Amine oxidase [flavin-containing] B; assay: biochemical; type: cell-based
# [25] = target: T1, Amine oxidase [flavin-containing] A; assay: Inhibition of recombinant human MAO-A expressed in baculovirus infected BT1 cells assessed as residual activity using p-tyramine as substrate at 100 uM preincubated for 24 hrs measured after 10 mins; details: read-out: Activity
# [26] = target: T1, Amine oxidase [flavin-containing] A; assay: Inhibition of recombinant human MAO-A expressed in baculovirus infected BT1 cells using p-tyramine as substrate at 20 to 240 uM by Lineweaver-Burk plot analysis
# [27] = target: T1, Amine oxidase [flavin-containing] A; assay: Ratio of relative Vmax to Km for recombinant human MAO-A expressed in baculovirus infected BT1 cells assessed as hydrogen peroxide generation rate using p-tyramine as substrate at 500 uM preincubated for 30 mins by Amplex Red assay
# [28] = target: T2, Amine oxidase [flavin-containing] B; assay: Activity at recombinant human MAO-B expressed in baculovirus infected BT1 cells assessed as hydrogen peroxide generation rate using benzylamine as substrate at 500 uM preincubated for 30 mins by Amplex Red assay relative to control
# [29] = target: T1, Amine oxidase [flavin-containing] A; assay: Activity at recombinant human MAO-A expressed in baculovirus infected BT1 cells assessed as hydrogen peroxide generation rate using p-tyramine as substrate at 500 uM preincubated for 30 mins by Amplex Red assay relative to control
# [30] = target: T2, Amine oxidase [flavin-containing] B; assay: Ratio of relative Vmax to Km for recombinant human MAO-B expressed in baculovirus infected BT1 cells assessed as hydrogen peroxide generation rate using benzylamine as substrate at 500 uM preincubated for 30 mins by Amplex Red assay
# [31] = target: T1, Amine oxidase [flavin-containing] A; assay: Activity at recombinant human MAO-A expressed in baculovirus infected BT1 cells assessed as hydrogen peroxide generation rate using p-tyramine as substrate at 500 uM preincubated for 30 mins by Amplex Red assay
# [32] = target: T2, Amine oxidase [flavin-containing] B; assay: Activity at recombinant human MAO-B expressed in baculovirus infected BT1 cells assessed as hydrogen peroxide generation rate using benzylamine as substrate at 500 uM preincubated for 30 mins by Amplex Red assay
compound,measurement,setting,value
NCCCOCCCCOCCCNCc1cccs1,Km,[1],> 1200 µM
same,fold change (FC),[2],0.21
same,fold change (FC),[3],0.06
same,fold change (FC),[4],0.19
CN(CCCCCCCCCCCCN)Cc1ccccc1,fold change (FC),[5],0.03
same,fold change (FC),[2],17.5
same,fold change (FC),[3],0.6
same,fold change (FC),[4],0.24
c1ccc(CNCCCCCCCCCCCCNCc2ccccc2)cc1,fold change (FC),[6],0.29
same,fold change (FC),[7],0.52
same,Ki,[8],186 µM
same,Ki,[9],129 µM
same,Ki,[10],1050 µM
same,fold change (FC),[11],0.62
same,fold change (FC),[12],0.37
same,Ki,[13],55 µM
NCCCNCCCCNCCCNCc1cccnc1,fold change (FC),[6],0.72
same,fold change (FC),[7],0.52
same,Activity,[1],Not Active
same,fold change (FC),[11],0.93
same,fold change (FC),[12],0.72
same,Activity,[14],Not Active
C[S+]([O-])CCCCN=C=S (stereo not drawn) [SULFORAPHANE],fold change (FC),[15],0.78
same,fold change (FC),[16],1.01
same,IC50,[17],20 µM
NCCCCCCCCCCCCNCc1cccs1,fold change (FC),[5],0.1
same,fold change (FC),[2],12
same,fold change (FC),[3],0.29
same,fold change (FC),[4],0.53
CN(CCCCCCCCCCCCN=C=S)Cc1ccccc1,fold change (FC),[15],0.22
same,Ki,[18],4.9 µM
same,activity at 100 µM,[19],64%
same,inhibition (INH),[20],Dose-dependent effect
same,kinact,[21],0.00075 s⁻¹
same,Ki,[22],5 µM
same,kinact,[23],0.0002 s⁻¹
same,Ki,[24],9 µM
same,activity at 100 µM,[25],100%
same,fold change (FC),[16],0.2
same,inhibition (INH),[26],Dose-dependent effect
same,IC50,[17],180 µM
same,Activity,[17],Dose-dependent effect
NCCCNCCCCNCCCNCc1cccs1,fold change (FC),[6],0.57
same,fold change (FC),[7],0.52
same,Activity,[1],Not Active
same,Ki,[8],997 µM
same,Ki,[9],23 µM
same,Ki,[10],414 µM
same,fold change (FC),[11],0.63
same,fold change (FC),[12],0.05
same,Ki,[13],226 µM
same,Activity,[14],Not Active
NCCCNCCCCNCCCNCc1ccc2ccccc2c1,fold change (FC),[6],0.62
same,fold change (FC),[7],0.52
same,Activity,[1],Not Active
same,fold change (FC),[11],0.81
same,fold change (FC),[12],0.91
same,Activity,[14],Not Active
C=CCN=C=S [ALLYL ISOTHIOCYANATE],fold change (FC),[15],1
same,fold change (FC),[16],0.98
NCCCNCCCCNCCCN [SPERMINE],fold change (FC),[6],0.86
same,fold change (FC),[7],0.77
same,fold change (FC),[11],0.98
same,fold change (FC),[12],0.76
NCCCCCCCCCCCCNCc1ccccc1,fold change (FC),[5],0.08
same,fold change (FC),[2],18.6
same,fold change (FC),[3],0.4
same,fold change (FC),[4],1
same,IC50,[17],327 µM
same,Activity,[17],Dose-dependent effect
NCCCNCCCCNCCCNCc1ccccc1,fold change (FC),[6],0.38
same,fold change (FC),[7],0.48
same,Ki,[8],188 µM
same,Ki,[9],291 µM
same,Ki,[10],785 µM
same,fold change (FC),[11],0.97
same,fold change (FC),[12],0.66
same,Ki,[13],170 µM
NCCCCCCCCNCCCNCc1cccs1,fold change (FC),[6],0.69
same,fold change (FC),[27],< 0.01
same,fold change (FC),[7],0.96
same,fold change (FC),[28],< 0.01
same,fold change (FC),[29],< 0.01
same,fold change (FC),[30],< 0.01
same,Km,[31],< 0.01 µM
same,fold change (FC),[11],0.71
same,Km,[32],< 0.01 µM
same,fold change (FC),[12],0.75

# — ChEMBL document CHEMBL3085760, “Novel polyamine analogues: from substrates towards potential inhibitors of monoamine oxidases” (Eur J Med Chem, 2013)
